Patent publication US20240299348A1, “MODULATORS OF TRPML, THEIR COMPOSITIONS AND METHODS OF USE” (Caraway Therapeutics, Inc., priority 2021, published 2024)

Experiments:
Format in all cases: cell-based
hTRPML3 = biological target: T1, hTRPML3 (Homo sapiens, UniProt Q8TDD5); test: TRPML3 fluorescent (Fluo-4) assay; settings: activation; read-out: Secondary Screening: Fluo-4: hTRPML3: EC50
T1 construct: expressed in transfected cells; host or cells: HEK-293 Trex (by analogy, 'performed as above')
T1 sequence (Q8TDD5 1-553): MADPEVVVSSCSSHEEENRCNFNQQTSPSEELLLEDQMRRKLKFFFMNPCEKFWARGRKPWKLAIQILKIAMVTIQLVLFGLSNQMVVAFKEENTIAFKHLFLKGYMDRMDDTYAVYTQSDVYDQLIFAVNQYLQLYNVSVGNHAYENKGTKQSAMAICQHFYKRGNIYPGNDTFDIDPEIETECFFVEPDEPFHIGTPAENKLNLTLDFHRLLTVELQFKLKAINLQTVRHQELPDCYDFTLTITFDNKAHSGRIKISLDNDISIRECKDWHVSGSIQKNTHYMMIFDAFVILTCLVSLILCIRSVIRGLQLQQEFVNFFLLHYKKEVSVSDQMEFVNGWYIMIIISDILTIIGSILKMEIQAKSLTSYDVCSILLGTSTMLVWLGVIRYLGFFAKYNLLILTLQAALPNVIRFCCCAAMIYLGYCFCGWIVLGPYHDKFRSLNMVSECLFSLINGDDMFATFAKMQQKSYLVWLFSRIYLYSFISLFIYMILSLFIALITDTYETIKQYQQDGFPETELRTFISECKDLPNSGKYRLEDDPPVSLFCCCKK
Method: (§1) Assays for TRPML2 and TRPML3 were performed as above for TRPML1, by substituting the appropriate TRPML2 or TRPML3 subtype for the TRPML1.
(§2) EC50 values were calculated using a non-linear regression of Prism.

hTRPML1 = hTRPML1 (Homo sapiens, UniProt Q9GZU1); test: TRPML1 fluorescent (Fluo-4) assay; set-up: Secondary Screening: Fluo-4: hTRPML1: EC50 (M); HEK-293 Trex cells expressing hTRPML1; settings: activation; HEK-293 Trex cells expressing hTRPML1; read-out: Secondary Screening: Fluo-4: hTRPML1: EC50
hTRPML1, sequence (Q9GZU1 whole entry L15A/L16A/L577A/L578A, form open): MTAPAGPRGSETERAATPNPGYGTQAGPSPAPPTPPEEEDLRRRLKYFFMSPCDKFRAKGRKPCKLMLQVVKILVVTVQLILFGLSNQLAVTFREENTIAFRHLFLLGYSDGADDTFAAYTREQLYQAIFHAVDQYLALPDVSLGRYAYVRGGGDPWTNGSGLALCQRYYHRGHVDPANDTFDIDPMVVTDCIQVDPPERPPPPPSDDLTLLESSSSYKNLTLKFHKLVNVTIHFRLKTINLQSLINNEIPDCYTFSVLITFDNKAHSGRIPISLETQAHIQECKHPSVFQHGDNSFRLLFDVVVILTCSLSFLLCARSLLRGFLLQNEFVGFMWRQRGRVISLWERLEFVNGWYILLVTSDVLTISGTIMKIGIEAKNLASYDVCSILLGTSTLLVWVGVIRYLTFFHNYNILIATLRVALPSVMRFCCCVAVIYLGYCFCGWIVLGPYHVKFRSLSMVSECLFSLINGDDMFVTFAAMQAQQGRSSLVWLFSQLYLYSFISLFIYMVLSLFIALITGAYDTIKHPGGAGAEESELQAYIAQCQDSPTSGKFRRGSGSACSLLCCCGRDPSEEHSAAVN
Method: HEK-293 Trex cells were stably transfected with a construct consisting of the human coding sequence for TRPML1 cloned into the […] plasmid pCDNA5 T/O. Mutations were introduced into the TRPML1 sequence to facilitate expression on the cell surface (Silvia Vergarajauregui, Rosa Puertollano Traffic. 2006 March; 7(3): 337-353). Briefly, the cells are cultured in 150 mm round tissue culture dishes containing 20 mL of media. The day before the assay the cells are rinsed with DPBS—Ca—Mg and then treated briefly with Trypsin-EDTA. The Trypsin-EDTA is diluted with growth media, and cells are counted. 38×10^6 cells are re-plated into 150 mm round tissue culture dishes in media containing 0.5 ug/mL doxycycline to induce expression of hTRPML1.
The day of the experiment cells are lifted from the plates as above and collected by centrifugation. The cells are then suspended in dye loading buffer consisting of Ringer's solution supplemented with 0.1% Pluronic Acid and 1 micromolar Fluo4-AM dye. Cells are loaded for ˜60 minutes in the dark with occasional mixing. The cells are collected by centrifugation, the loading media aspirated, and the cells resuspended in 25 mL Ringer's solution and incubated ˜60 minutes in the dark. The cells are again collected by centrifugation, rinsed in Ringer's Solution and resuspended to 0.2×10^6 cells/mL in modified Ringer's solution containing 10 mM calcium.
Compounds are dissolved to a concentration of 10 millimolar with DMSO. Compound plates are created by dispensing compounds into 384 well black wall clear bottom plates (Greiner 781091). Positive and negative controls are included on each plate. Typically, different amounts of each compound are tested ranging from 100 nanoMoles (20 micromolar final concentration) decreasing in half-log steps to 31 picoMoles (6 nanomolar final concentration). Each concentration is typically tested in triplicate.
50 microliters of dye-loaded cells are dispensed into each well of the compound assay plate created above. The fluorescence in each well is then determined with an excitation wavelength of 480 nm and an emission wavelength of 540 nm using either a Molecular Devices SpectraMax multimode plate reader or a Hamamatsu FDSS/uCell plate imager.
The resulting fluorescence for each well is exported as an ascii file and loaded into our LIMS for analysis. The percent activity of each compound at each concentration is determined by comparison to the positive and negative control wells included in each plate.
as §2

hTRPML2 = biological target: T2, hTRPML2 (Homo sapiens, UniProt Q8IZK6); test: TRPML2 fluorescent (Fluo-4) assay; settings: activation; read-out: Secondary Screening: Fluo-4: hTRPML2: EC50
T2 construct: expressed in transfected cells; host or cells: HEK-293 Trex (by analogy, 'performed as above')
T2 sequence (Q8IZK6 1-566): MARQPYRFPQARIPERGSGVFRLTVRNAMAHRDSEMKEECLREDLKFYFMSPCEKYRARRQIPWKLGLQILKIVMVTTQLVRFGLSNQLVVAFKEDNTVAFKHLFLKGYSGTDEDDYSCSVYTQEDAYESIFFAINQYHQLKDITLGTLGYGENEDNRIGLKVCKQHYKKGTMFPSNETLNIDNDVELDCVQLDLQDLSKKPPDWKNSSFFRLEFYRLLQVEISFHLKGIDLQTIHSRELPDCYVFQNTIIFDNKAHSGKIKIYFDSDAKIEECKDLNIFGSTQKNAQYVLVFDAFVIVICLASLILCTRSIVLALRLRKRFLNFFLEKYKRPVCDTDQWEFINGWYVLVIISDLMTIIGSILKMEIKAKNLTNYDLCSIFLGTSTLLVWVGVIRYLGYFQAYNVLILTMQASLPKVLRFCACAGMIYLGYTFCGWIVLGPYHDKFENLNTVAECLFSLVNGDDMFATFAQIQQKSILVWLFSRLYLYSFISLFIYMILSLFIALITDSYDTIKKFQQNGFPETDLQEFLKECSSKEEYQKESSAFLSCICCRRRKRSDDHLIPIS
Method: as §1, §2

EC50 (hTRPML3) [nM]	EC50 (hTRPML1) [nM]	EC50 (hTRPML2) [nM]	Compound
300 to 1000	1000 to 5000		CN(C)S(=O)(=O)c1ccc(S(=O)(=O)N[C@H]2CCCC[C@@H]2N2CCN(c3ccccc3F)CC2)cc1 (relative stereo) [Compound 116, trans-N^1-(2-(4-(2-fluorophenyl)piperazin-1-yl)cyclohexyl)-N^4,N^4-dimethylbenzene-1,4-disulfonamide]
	< 300	> 5000	CN([C@H]1CCN(c2ccc(Cl)cc2F)C1)[C@H]1CCCC[C@@H]1NS(=O)(=O)c1ccc(S(=O)(=O)N(C)C)cc1 (stereo in doubt) [Compound 119, trans-N^1-(2-(((S)-1-(4-chloro-2-fluorophenyl)-pyrrolidin-3-yl)(methyl)-amino)cyclohexyl)-N^4,N^4-dimethylbenzene-1,4-disulfonamide]
	< 300		CN(c1ccc(Cl)cc1F)C1CCN(c2ccccc2NS(=O)(=O)c2ccc(S(=O)(=O)N(C)C)cc2)C1 (stereo not shown) [Compound 104, N^1-(2-(3-((4-chloro-2-fluorophenyl)(methyl)amino)pyrrolidin-1-yl)phenyl)-N^4,N^4-dimethylbenzene-1,4-disulfonamide]
	< 300	> 5000	CN(C1CCCC[C@@H]1NS(=O)(=O)c1ccc(S(=O)(=O)N(C)C)cc1)[C@@H]1CCN(c2ccc(Cl)cc2F)C1 (stereo partly drawn) [Compound 118, trans-N^1-(2-(((R)-1-(4-Chloro-2-fluorophenyl)pyrrolidin-3-yl)(methyl)amino)cyclohexyl)-N^4,N^4-dimethylbenzene-1,4-disulfonamide]
< 300	< 300		CN(c1ccccc1NS(=O)(=O)c1ccc(S(=O)(=O)N(C)C)cc1)[C@H]1CCN(c2ccc(Cl)cc2F)C1 [Compound 110, (S)-N^1-(2-((1-(4-chloro-2-fluorophenyl)pyrrolidin-3-yl)(methyl)amino)phenyl)-N^4,N^4-dimethylbenzene-1,4-disulfonamide]
300 to 1000	1000 to 5000		CN(C)S(=O)(=O)c1ccc(S(=O)(=O)Nc2ccccc2N2CCN(C34CC(C3)C4)CC2)cc1 [Compound 115, N^1-(2-(4-(bicyclo[1.1.1]pentan-1-yl)piperazin-1-yl)phenyl)-N^4,N^4-dimethylbenzene-1,4-disulfonamide]
< 300	300 to 1000		CN(c1ccccc1NS(=O)(=O)c1ccc(S(=O)(=O)N(C)C)cc1)[C@@H]1CCN(c2ccc(Cl)cc2F)C1 [Compound 111, (R)-N^1-(2-((1-(4-chloro-2-fluorophenyl)pyrrolidin-3-yl)(methyl)amino)phenyl)-N^4,N^4-dimethylbenzene-1,4-disulfonamide]
	300 to 1000		CN(C)S(=O)(=O)c1ccc(S(=O)(=O)Nc2ccccc2N2CCC3(CCN(c4ccc(Cl)cc4F)C3)C2)cc1 (stereo not shown) [Compound 103, N^1-(2-(7-(4-chloro-2-fluorophenyl)-2,7-diazaspiro[4.4]nonan-2-yl)phenyl)-N^4,N^4-dimethylbenzene-1,4-disulfonamide]

Further lines, the compound ahead of its results:

Compound	EC50 (hTRPML3) [nM]	EC50 (hTRPML1) [nM]	EC50 (hTRPML2) [nM]
CN(C)S(=O)(=O)c1ccc(S(=O)(=O)Nc2ccccc2N2C[C@H]3C[C@@H]2CN3c2ccc(Cl)cc2F)cc1 [Compound 107, N^1-(2-((1R,4R)-5-(4-chloro-2-fluorophenyl)-2,5-diazabicyclo[2.2.1]heptan-2-yl)phenyl)-N^4,N^4-dimethylbenzene-1,4-disulfonamide]		300 to 1000	
CN(C)S(=O)(=O)c1ccc(S(=O)(=O)Nc2ccccc2N2CCC3(CN(c4ccc(Cl)cc4F)C3)C2)cc1 [Compound 102, N^1-(2-(2-(4-chloro-2-fluorophenyl)-2,6-diazaspiro[3.4]octan-6-yl)phenyl)-N^4,N^4-dimethylbenzene-1,4-disulfonamide]		300 to 1000	
CN(c1ccccc1NS(=O)(=O)c1ccc(S(=O)(=O)N(C)C)cc1)C1CCN(C(=O)OC2CCCCC2)C1 (stereo not shown) [Compound 124, cyclohexyl 3-((2-((4-(N,N-dimethylsulfamoyl)phenyl)sulfonamido)phenyl)(methyl)amino)pyrrolidine-1-carboxylate]	300 to 1000	300 to 1000	1000 to 5000
CN(C)S(=O)(=O)c1ccc(S(=O)(=O)Cc2ccccc2N2CCN(c3ccc(Cl)cc3F)CC2)cc1 [Compound 106, 4-(2-(4-(4-Chloro-2-fluorophenyl)piperazin-1-yl)benzylsulfonyl)-N,N-dimethylbenzenesulfonamide]		< 300	
CN(C)S(=O)(=O)c1ccc(S(=O)(=O)N[C@H]2CCCC[C@H]2N2CCN(c3ccc(Cl)cc3F)CC2)cc1 (stereo in doubt) [Compound 109, N^1-((1S,2R)-2-(4-(4-Chloro-2-fluorophenyl)piperazin-1-yl)cyclohexyl)-N^4,N^4-dimethylbenzene-1,4-disulfonamide]	300 to 1000	1000 to 5000	
Cc1ccc(S(=O)(=O)N[C@H]2CCCC[C@@H]2N2CCN(c3ccc(Cl)cc3F)CC2)cc1 (relative stereo) [Compound 117, trans-N-(2-(4-(4-chloro-2-fluoro-phenyl)piperazin-1-yl)cyclohexyl)-4-methylbenzene-sulfonamide]	< 300	300 to 1000	
CN(c1ccccc1NS(=O)(=O)c1ccc(S(=O)(=O)N(C)C)cc1)C1CCN(C(=O)OC(C)(C)C)C1 (stereo not shown) [Compound 114, tert-butyl 3-((2-((4-(N,N-dimethylsulfamoyl)phenyl)sulfonamido)phenyl)(methyl)amino)pyrrolidine-1-carboxylate]	300 to 1000	1000 to 5000	
CN(C)S(=O)(=O)c1ccc(S(=O)(=O)N[C@H]2CCCC[C@@H]2N2CCN(c3ccc(Cl)cc3F)CC2)cc1 [Compound 105, N^1-((1S,2S)-2-(4-(4-chloro-2-fluorophenyl)piperazin-1-yl)cyclohexyl)-N^4,N^4-dimethylbenzene-1,4-disulfonamide]		300 to 1000	
CN(c1ccccc1NS(=O)(=O)c1ccc(S(=O)(=O)N(C)C)cc1)C1CCN(c2ccccc2F)C1 (stereo not shown) [Compound 112, N^1-(2-((1-(2-Fluorophen-yl)pyrrolidin-3-yl)(meth-yl)amino)phenyl)-N^4,N^4-dimethylbenzene-1,4-disulfonamide]	< 300	300 to 1000	
CN(C)S(=O)(=O)c1ccc(S(=O)(=O)Nc2ccccc2C2CCN(c3ccc(Cl)cc3F)CC2)cc1 [Compound 108, N^1-(2-(1-(4-chloro-2-fluorophenyl)piperidin-4-yl)phenyl)-N^4,N^4-dimethylbenzene-1,4-disulfonamide]	300 to 1000	1000 to 5000	
